Measured values as given in the supplement of paper PMC3937590.

Assays:
Assay in all cases: -log10 GI50 (growth inhibition 50%) (-log10(M)); higher = more potent growth inhibition
MDAMB175VII = test system: MDAMB175VII
In short: (§1)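 A value carrying a < qualifier equals the top dose tested. Each compound was tested in triplicate on breast cancer cell lines for 72 hours at nine doses in 1:5 serial dilution, using a luminescence read-out against a time-zero plate. Nonlinear least squares fitting of a Gompertz curve gave GI50, the molar concentration causing the set level of growth inhibition, which is reported as its negative logarithm. The logarithm is base 10.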

MCF7 = test system: MCF7
In short: as §1

HCC70 = test system: HCC70
In short: as §1

MX1 = test system: MX1
In short: as §1

MCF10F = test system: MCF10F
In short: as §1

ZR75B = test system: ZR75B
In short: as §1

UACC812 = test system: UACC812
In short: as §1

HCC38 = test system: HCC38
In short: as §1

HCC1937 = test system: HCC1937
In short: as §1

CAMA1 = test system: CAMA1
In short: as §1

HCC1954 = test system: HCC1954
In short: as §1

T47D = test system: T47D
In short: as §1

MDAMB157 = test system: MDAMB157
In short: as §1

MDAMB134VI = test system: MDAMB134VI
In short: as §1

MCF10A = test system: MCF10A
In short: as §1

MDAMB453 = test system: MDAMB453
In short: as §1

HS578T = test system: HS578T
In short: as §1

HCC1187 = test system: HCC1187
In short: as §1

184A1 = test system: 184A1
In short: as §1

SUM149PT = test system: SUM149PT
In short: as §1

Compound | -log10 GI50 (MDAMB175VII) | -log10 GI50 (MCF7) | -log10 GI50 (HCC70) | -log10 GI50 (MX1) | -log10 GI50 (MCF10F) | -log10 GI50 (ZR75B) | -log10 GI50 (UACC812) | -log10 GI50 (HCC38) | -log10 GI50 (HCC1937) | -log10 GI50 (CAMA1) | -log10 GI50 (HCC1954) | -log10 GI50 (T47D) | -log10 GI50 (MDAMB157) | -log10 GI50 (MDAMB134VI) | -log10 GI50 (MCF10A) | -log10 GI50 (MDAMB453) | -log10 GI50 (HS578T) | -log10 GI50 (HCC1187) | -log10 GI50 (184A1) | -log10 GI50 (SUM149PT)
O=C(/C=C/C#Cc1cccc(NS(=O)(=O)c2ccccc2)c1)NO [Oxamflatin] | 5.41 | 5.74 | 6.36 | 6.32 | 5.41 | 6.41 | 5.75 | 6.77 | 5.84 | 6.09 | 5.81 | 6.06 | 6.13 | 6.18 | 6.14 | 6.56 | 5.86 | 6.19 | 5.86 | 6.23
Nc1nc2[nH]cc(CCc3ccc(C(=O)N[C@@H](CCC(=O)O)C(=O)O)cc3)c2c(=O)[nH]1 [Pemetrexed] | 8.1 | < 2.53 | < 2.53 | < 2.53 | < 2.53 | < 2.53 | < 2.53 | < 2.53 | 3.17 | 4.62 | < 2.53 | < 2.53 | < 2.53 | < 2.53 | < 2.53 | < 2.53 | 4.59 | < 2.53 | 6.38 | < 2.53
O=S(=O)(CC1CS1)c1ccc(Oc2ccccc2)cc1 (stereo not given) [SB-3CT] | < 4 | < 4 | < 3.78 | 4.85 | < 4 | 4.62 | < 4 | 4.31 | < 4 | < 4 | < 4 | < 4 | < 3.78 | < 4 | 4.05 | < 3.78 | 4.42 | 4.83 | < 3.78 | 4.27
Cc1cc(Nc2cc(N3CCN(C)CC3)nc(Sc3ccc(NC(=O)C4CC4)cc3)n2)n[nH]1 [VX-680] | 4.72 | 5.08 | 5.6 | 6.81 | 4.99 | 6.79 | 4.79 | 6.74 | 5.1 | 4.53 | 5.32 | 5.03 | 5.43 | 6.03 | 6.04 | 5.03 | 6.57 | 6.89 | 5.64 | 5.07
Cc1cc(C(=O)N2CCN(c3cccc(Cl)c3)CC2)n(-c2ccccc2)n1 [XRP44X] | 5.44 | 6.4 | 5.97 | 6.04 | < 3.88 | 5.9 | 6.15 | 5.77 | < 3.88 | 6.01 | 6.3 | 5.41 | 5.95 | 6.09 | 6.55 | 6.01 | 6 | 6.05 | 6.5 | 5.88
